Measured values published in article PMC7399337, “Biological Properties and Absolute Configuration of Flavanones From Calceolaria thyrsiflora Graham” (Frontiers in Pharmacology, 2020).
Read-outs that look alike come from different tables or passages of the source.

How the values were obtained:
P. cinnamomi = test: In vitro fungicidal activity, radial mycelial growth test on PDA; assay type: cell-based, Phytophtora cinnamomi; settings: Phytophthora cinnamomi, 120 h, read-out: Percentage of inhibition on in vitro mycelial growth of P. cinnamomi; for inhibition at 50 µg/mL: 50 mg/L; for inhibition at 150 µg/mL: 150 mg/L; for inhibition at 250 µg/mL: 250 mg/L
Protocol: A strain of Botrytis cinerea isolated from a naturally infected grape (Vitis vinifera) was used in all experiments. Isolated Phytophtora cinnamomi was provided by the Agricultural and Livestock Service of Valparaíso. Both strains were maintained on a potato dextrose agar (PDA) medium (DIFCO, Detroit, MI) at 4°C. The inoculum of both pathogens was grown on PDA and incubates in dark at 23°C for 5 days in the case of B. cinerea and 8 days for P. cinnamomi.
The fungicidal activity of flavanones, extracts, the negative control (C-) composed of solvent (1% ethanol), and the positive control (C+, commercial fungicide Captan® and metalaxil® for B. cinerea and P. cinnamomi, respectively) were assessed using the radial growth test technique on PDA medium as described ([Taborga et al., 2015]). All test samples were dissolved in ethanol (1%) and water, to obtain final concentrations of 50, 150, and 250 mg/L in the PDA medium. A plug (4 mm) of PDA medium with five-day-old mycelium colonies of the pathogen was placed at the center of a Petri dish with PDA medium with or without studied test samples and were incubated at 23°C in dark for 72 h (B. cinerea) and 120 h (P. cinnamomi). After incubation, the diameters of colonies were measured and the inhibition percentage was calculated as the average of three replicas compared to C-.

5-hLOX = molecular target: T1, 5-hLOX (Homo sapiens, UniProt P09917); test: In vitro 5-hLOX enzyme assay (H2DCFDA fluorescence); assay type: biochemical; settings: for Type of inhibition: 5-hLOX; for inhibition at 10 µM: Flavanones at 10 µM
T1 construct: purchased Cayman Chemicals Inc. (Ann Arbor, MI, USA)
T1 sequence (P09917 1-674): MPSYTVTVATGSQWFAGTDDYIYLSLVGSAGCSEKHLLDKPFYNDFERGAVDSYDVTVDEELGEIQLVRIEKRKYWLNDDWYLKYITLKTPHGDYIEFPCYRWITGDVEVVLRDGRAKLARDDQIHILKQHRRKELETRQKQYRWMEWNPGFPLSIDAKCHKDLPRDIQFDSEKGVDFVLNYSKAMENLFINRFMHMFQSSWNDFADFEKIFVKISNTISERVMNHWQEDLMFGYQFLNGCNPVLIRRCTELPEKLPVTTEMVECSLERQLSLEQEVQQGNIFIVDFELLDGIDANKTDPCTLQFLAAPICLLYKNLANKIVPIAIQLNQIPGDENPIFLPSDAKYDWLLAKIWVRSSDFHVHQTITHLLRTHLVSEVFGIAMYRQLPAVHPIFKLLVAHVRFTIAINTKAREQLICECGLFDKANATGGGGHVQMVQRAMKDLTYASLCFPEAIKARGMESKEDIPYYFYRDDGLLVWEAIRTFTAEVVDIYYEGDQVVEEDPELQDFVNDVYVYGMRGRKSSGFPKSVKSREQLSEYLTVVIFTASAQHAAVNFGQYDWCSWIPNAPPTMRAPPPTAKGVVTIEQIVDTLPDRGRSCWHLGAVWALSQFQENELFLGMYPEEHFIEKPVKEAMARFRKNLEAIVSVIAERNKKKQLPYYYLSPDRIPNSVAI
Protocol: The commercially available enzyme 5-hLOX from Cayman Chemicals Inc. (Ann Arbor, MI, USA), was diluted (1:500) in the assay buffer. This contained 4-(2-hydroxyethyl)-1-piperazineethane sulfonic acid (HEPES) 50 mM, ethylenediamine tetraacetic acid (EDTA) 2 mM, adenosine triphosphate (ATP) 10 μM, and CaCl2 10 μM at pH 7.5) admixed with 10 μM of H2DCFDA. The reaction mixture was incubated for 15 min in the assay plate. Later, 280 μL of buffer and 10 μM of inhibitors were added per well and incubated for 30 min at 37°C. Finally, the reaction was started by adding a suitable concentration of arachidonic acid (0.5 μM) and the fluorescence was read in a multimode detector Synergy™ HT Multi-Mode Microplate Reader (Biotek, Bad Friedrichshall, Germany) […] after incubation at room temperature for 1 h. The IC50 values were obtained for analysis of oxidation of H2DCFDA dye to the highly fluorescent 2’,7’-dichloro-fluorescein (DCF) using the non-linear curve-fitting program. […] All data were collected in duplicate and the assays were performed on different days to ensure reproducibility.

[1] = tested on: B16-F10 mouse metastatic melanoma cells; test: In vitro cytotoxic activity, CyQuant cell viability, 72 h; assay type: cell-based; settings: for CC50: Mus musculus, B16-F10, 72 h, read-out: LC50 ± SD
Protocol: Cell viability was measured using a CyQuant® Direct Cell Proliferation Assay Kit (Life Technologies, Grand Island, NY, USA) following the manufacturer’s instruction. Briefly, 5,000 cells per well were seeded onto a flat-bottom 96-well plate in 200 μL final volume. Six hours after seeding, the culture medium was replaced by the medium containing the tested compounds at 0.01 to 100 µM concentrations in DMSO (0.1% final concentration) during 72 h. Untreated cells (medium containing only 0.1% DMSO) were used as controls. At the end of the incubation, 100 μL of culture medium was removed from each well and replaced by detection reagent solution provided by the kit (which is a 1:5 mixture of the reagent CyQUANT®, direct nucleic acid stain and the reagent labeled as CyQUANT® direct background suppressor I). […] At least four independent experiments were performed for each concentration.

Structure (SMILES)	inhibition at 50 µg/mL (P. cinnamomi)	inhibition at 150 µg/mL (P. cinnamomi)	inhibition at 250 µg/mL (P. cinnamomi)	IC50 (5-hLOX)	Ki (5-hLOX)	Type of inhibition (5-hLOX)	inhibition at 10 µM (5-hLOX)	LC50 ± SD ([1]; B16-F10, 72 h)	CC50 [1]	IC50 (5-hLOX; read-out: IC50 (5-hLOX))	fold less cytotoxic activity against B16-F10 than etoposide ([1]; B16-F10)	fold less cytotoxic activity against B16-F10 than taxol ([1]; B16-F10)	selectivity towards B16-F10 as compared to non-cancerous cells (MEF) ([1]; LC50 MEF versus B16-F10)
COc1cc(O)c2c(c1)O[C@H](c1ccc(O)cc1)CC2=O [Compound 1, (-)-(2S)-5,4’-dihydroxy-7-methoxyflavanone]	0%	0%	0%	11.3 µM	4.71 µM	non-competitive	61 ± 1.34%	no significant cytotoxic activity	72 ± 7.16 µM				
COc1cc(O)c2c(c1)O[C@H](c1ccc(O)c(O)c1)CC2=O [Compound 2, (-)-(2S)-5,3’,4’-trihydroxy-7-methoxyflavanone]	0%	33 ± 5.8%	42 ± 5.3%			competitive	93 ± 0.791%		8.07 ± 1.61 µM	0.1 µM	4.6 fold	17 fold	4 fold
